Laboratory results from US20240287138A1, “CYCLIC PEPTIDES FOR INHIBITING TNF RECEPTOR 1 ACTIVITY” (Merck Sharp & Dohme LLC, priority 2023, published 2024).
Numbered stars: 1 amine (or outer) side, 2 acyl side, 3 side chain; on linkers, the order of the positions; unused ones are H or OH. Bridge positions count the residues as written; N and C are the ends. Square brackets hold non-standard residues; d marks the D form. Peptide text beside a SMILES is read from it. Ala(2-carboxypyrimidin-5-yl) = N[C@@H](Cc1cnc(C(=O)O)nc1)C(=O)O; Trp(βS-Me,7-OMe) = COc1cccc2c([C@H](C)[C@H](N)C(=O)O)c[nH]c12; Ala(1-bicyclo(1.1.1)pentyl) = N[C@@H](CC12CC(C1)C2)C(=O)O; Trp(7-Cl) = N[C@@H](Cc1c[nH]c2c(Cl)cccc12)C(=O)O; Phe(3-COOH) = N[C@@H](Cc1cccc(C(=O)O)c1)C(=O)O; Phe(4-CONH2) = NC(=O)c1ccc(C[C@H](N)C(=O)O)cc1; Phe(4-COOH) = N[C@@H](Cc1ccc(C(=O)O)cc1)C(=O)O; X18 = O=C([C@@H]1C=C[C@H](N[*:1])C1)[*:2]; Pip(5R-OH) = O=C(O)[C@@H]1CC[C@@H](O)CN1; X1 = O=C([C@@H]1CC[C@H](N[*:1])C1)[*:2]; X40 = CCN([C@H](C)C(=O)[*:2])[*:1]; Pip(4-aza) = O=C(O)[C@@H]1CNCCN1; 4Pal = N[C@@H](Cc1ccncc1)C(=O)O; NMeE = CN[C@@H](CCC(=O)O)C(=O)O; dHyp = O=C(O)[C@H]1C[C@H](O)CN1; αMeS = C[C@](N)(CO)C(=O)O; Nle = CCCC[C@H](N)C(=O)O; Sar = CNCC(=O)O

What was measured:
[1] = target: T1, TNFα-induced NF-κB signal transduction pathway (TNFR1 signaling) in THP-1 cells (Homo sapiens, UniProt P19438); assay: THP-1 Lucia NF-κB reporter cell assay, inhibition of TNFα-induced NF-κB signaling; type: cell-based; settings: THP-1 NF-κB Lucia reporter cells, 10 ng/mL TNFα, 16-18 h, secreted luciferase; read-out: THP-1 IC50
T1 sequence (P19438 30-455): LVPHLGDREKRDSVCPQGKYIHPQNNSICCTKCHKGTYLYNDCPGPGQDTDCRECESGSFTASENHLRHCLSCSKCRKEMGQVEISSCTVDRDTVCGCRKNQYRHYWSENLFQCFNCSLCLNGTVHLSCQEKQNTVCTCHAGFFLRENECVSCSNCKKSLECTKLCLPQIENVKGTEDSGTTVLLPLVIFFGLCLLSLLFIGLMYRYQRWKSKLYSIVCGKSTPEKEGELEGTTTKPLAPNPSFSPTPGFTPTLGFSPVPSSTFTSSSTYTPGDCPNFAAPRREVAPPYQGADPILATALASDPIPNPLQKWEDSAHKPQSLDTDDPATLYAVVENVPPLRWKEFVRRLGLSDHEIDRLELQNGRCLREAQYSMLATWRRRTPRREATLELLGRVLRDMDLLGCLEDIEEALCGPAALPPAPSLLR
How it was run: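 IC50 from a 4-parameter logistic fit of secreted luciferase luminescence (QUANTI-Luc), normalised to min/max controls. Reporter THP-1 cells were exposed to peptides for 1 h at 37 °C before 10 ng/mL TNFα (final) was added overnight (16–18 h).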

[2] = target: T2, human soluble TNFR1 (sTNFR1) (Homo sapiens, UniProt P19438); assay: Human sTNFR1-peptide displacement assay (LanthaScreen Eu TR-FRET binding assay)
T2 construct: made in house; host or cells: Sf21 (baculovirus)
T2 sequence (P19438 with tags, fused parts or gaps): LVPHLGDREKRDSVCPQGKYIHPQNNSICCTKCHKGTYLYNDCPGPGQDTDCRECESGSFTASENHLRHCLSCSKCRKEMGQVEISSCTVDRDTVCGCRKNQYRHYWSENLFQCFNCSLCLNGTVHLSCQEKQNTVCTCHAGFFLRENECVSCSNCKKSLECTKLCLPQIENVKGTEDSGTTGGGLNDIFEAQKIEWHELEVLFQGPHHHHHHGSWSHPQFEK
How it was run: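 Readout is the 665/615 nm TR-FRET ratio (Eu anti-His donor, streptavidin-Alexa647 acceptor), normalized to DMSO and saturating displacer, fit by Morrison-based five-parameter logistic for Kd^app. His-tagged sTNFR1 (1-211) prebound to 100 nM biotinylated peptide SEQ ID NO.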

Row | Structure (SMILES) | IC50 [1] [pM] | Kd [2] [pM] | IC50 [2] [pM]
1 | CCCC[C@@H]1NC(=O)[C@@H]2C=C[C@@H](C2)NC(=O)[C@H]([C@@H](C)c2c[nH]c3c(OC)cccc23)NC(=O)CN(C)C(=O)[C@H](Cc2ccc(O)cc2)NC(=O)[C@H](Cc2ccc(C(=O)O)cc2)NC(=O)[C@](C)(CO)NC(=O)[C@H](Cc2c[nH]c3c(Cl)cccc23)NC(=O)[C@H](Cc2ccncc2)NC(=O)[C@H](CC(N)=O)NC(=O)[C@H](CCC(=O)O)N(C)C(=O)[C@H](Cc2c[nH]c3ccccc23)NC(=O)[C@@H]2CNCCN2C(=O)[C@H](Cc2ccncc2)NC1=O [SEQ ID NO. 182] (cyclo([4Pal][Trp(7-Cl)][αMeS][Phe(4-COOH)]Y[Sar][Trp(βS-Me,7-OMe)][X18][Nle][4Pal][Pip(4-aza)]W[NMeE]N)) | 900 | 200 | 
2 | CCCC[C@@H]1NC(=O)CSC[C@@H](C(N)=O)NC(=O)[C@H]([C@@H](C)c2c[nH]c3c(OC)cccc23)NC(=O)CN(C)C(=O)[C@H](Cc2cccc(C(=O)O)c2)NC(=O)[C@H](Cc2ccc(C(N)=O)cc2)NC(=O)[C@](C)(CO)NC(=O)[C@H](Cc2c[nH]c3c(Cl)cccc23)NC(=O)[C@H](Cc2ccc(C(N)=O)cc2)NC(=O)[C@H](CC(N)=O)NC(=O)[C@H](CCC(=O)O)N(C)C(=O)[C@H](Cc2c[nH]c3ccccc23)NC(=O)[C@@H]2CNCCN2C(=O)[C@H](Cc2ccncc2)NC1=O [SEQ ID NO. 184] ({CH2CO}-[Nle][4Pal][Pip(4-aza)]W[NMeE]N[Phe(4-CONH2)][Trp(7-Cl)][αMeS][Phe(4-CONH2)][Phe(3-COOH)][Sar][Trp(βS-Me,7-OMe)]C-NH2; thioether N-14) | 1700 |  | 500
3 | CCCC[C@@H]1NC(=O)CSC[C@@H](C(N)=O)NC(=O)[C@H]([C@@H](C)c2c[nH]c3c(OC)cccc23)NC(=O)CN(C)C(=O)[C@H](Cc2ccc(O)cc2)NC(=O)[C@H](Cc2ccc(C(N)=O)cc2)NC(=O)[C@](C)(CO)NC(=O)[C@H](Cc2c[nH]c3c(Cl)cccc23)NC(=O)[C@H](Cc2ccc(C(=O)O)cc2)NC(=O)[C@H](CC(N)=O)NC(=O)[C@H]2C[C@H](O)CN2C(=O)[C@H](Cc2c[nH]c3ccccc23)NC(=O)[C@@H]2CC[C@@H](O)CN2C(=O)[C@H](Cc2ccncc2)NC1=O [SEQ ID NO. 185] ({CH2CO}-[Nle][4Pal][Pip(5R-OH)]W[dHyp]N[Phe(4-COOH)][Trp(7-Cl)][αMeS][Phe(4-CONH2)]Y[Sar][Trp(βS-Me,7-OMe)]C-NH2; thioether N-14) | 900 | 160 | 200
4 | CCCC[C@@H]1NC(=O)CSC[C@@H](C(N)=O)NC(=O)[C@H]([C@@H](C)c2c[nH]c3c(OC)cccc23)NC(=O)CN(C)C(=O)[C@H](Cc2ccc(O)cc2)NC(=O)[C@H](Cc2ccc(C(N)=O)cc2)NC(=O)[C@](C)(CO)NC(=O)[C@H](Cc2c[nH]c3c(Cl)cccc23)NC(=O)[C@H](Cc2ccncc2)NC(=O)[C@H](CC(N)=O)NC(=O)[C@@H](C)N(CC)C(=O)[C@H](Cc2c[nH]c3ccccc23)NC(=O)[C@@H]2CC[C@@H](O)CN2C(=O)[C@H](Cc2ccncc2)NC1=O [SEQ ID NO. 186] ({CH2CO}-[Nle][4Pal][Pip(5R-OH)]W[X40]N[4Pal][Trp(7-Cl)][αMeS][Phe(4-CONH2)]Y[Sar][Trp(βS-Me,7-OMe)]C-NH2; thioether N-14) | 1900 | 420 | 500
5 | COc1cccc2c([C@H](C)[C@@H]3NC(=O)CN(C)C(=O)[C@H](Cc4ccc(O)cc4)NC(=O)[C@H](Cc4ccc(C(=O)O)cc4)NC(=O)[C@](C)(CO)NC(=O)[C@H](Cc4c[nH]c5c(Cl)cccc45)NC(=O)[C@H](Cc4ccncc4)NC(=O)[C@H](CC(N)=O)NC(=O)[C@H](CCC(=O)O)N(C)C(=O)[C@H](Cc4c[nH]c5ccccc45)NC(=O)[C@@H]4CNCCN4C(=O)[C@H](Cc4ccncc4)NC(=O)[C@H](CC45CC(C4)C5)NC(=O)[C@@H]4CC[C@@H](C4)NC3=O)c[nH]c12 [SEQ ID NO. 190] (cyclo([4Pal][Trp(7-Cl)][αMeS][Phe(4-COOH)]Y[Sar][Trp(βS-Me,7-OMe)][X1][Ala(1-bicyclo(1.1.1)pentyl)][4Pal][Pip(4-aza)]W[NMeE]N)) | 1600 | 330 | 
6 | CCCC[C@@H]1NC(=O)[C@@H]2CC[C@@H](C2)NC(=O)[C@H]([C@@H](C)c2c[nH]c3c(OC)cccc23)NC(=O)CN(C)C(=O)[C@H](Cc2cnc(C(=O)O)nc2)NC(=O)[C@H](Cc2ccc(C(N)=O)cc2)NC(=O)[C@](C)(CO)NC(=O)[C@H](Cc2c[nH]c3c(Cl)cccc23)NC(=O)[C@H](Cc2ccc(C(=O)O)cc2)NC(=O)[C@H](CC(N)=O)NC(=O)[C@H]2C[C@H](O)CN2C(=O)[C@H](Cc2c[nH]c3ccccc23)NC(=O)[C@@H]2CC[C@@H](O)CN2C(=O)[C@H](Cc2ccncc2)NC1=O [SEQ ID NO. 191] (cyclo([4Pal][Pip(5R-OH)]W[dHyp]N[Phe(4-COOH)][Trp(7-Cl)][αMeS][Phe(4-CONH2)][Ala(2-carboxypyrimidin-5-yl)][Sar][Trp(βS-Me,7-OMe)][X1][Nle])) | 1600 | 180 | 
